Measurements reported in ChEMBL document CHEMBL5726454, “Protein tyrosine kinase modulators and methods of use” (2017).

Target: ALK tyrosine kinase receptor (Homo sapiens, UniProt Q9UM73)
Experiment: 2.5 uL-4x Test Compound or 100 nL 100x plus 2.4 uL kinase buffer; 2. 5 uL-2x Peptide/Kinase Mixture; 3. 2.5 uL-4xATP Solution; 4. 30-second plate shake; 5. 60-minute Kinase Reaction incubation at room temperature; 6. 5 uL-Development Reagent Solution; 7. 30-second plate shake; 8. 60-minute Development Reaction incubation at room temperature; 9. […] After the 1 hour Kinase Reaction incubation, 5 uL of a 1:256 dilution of Development Reagent B is added.

Sequence of ALK tyrosine kinase receptor (Q9UM73 whole entry): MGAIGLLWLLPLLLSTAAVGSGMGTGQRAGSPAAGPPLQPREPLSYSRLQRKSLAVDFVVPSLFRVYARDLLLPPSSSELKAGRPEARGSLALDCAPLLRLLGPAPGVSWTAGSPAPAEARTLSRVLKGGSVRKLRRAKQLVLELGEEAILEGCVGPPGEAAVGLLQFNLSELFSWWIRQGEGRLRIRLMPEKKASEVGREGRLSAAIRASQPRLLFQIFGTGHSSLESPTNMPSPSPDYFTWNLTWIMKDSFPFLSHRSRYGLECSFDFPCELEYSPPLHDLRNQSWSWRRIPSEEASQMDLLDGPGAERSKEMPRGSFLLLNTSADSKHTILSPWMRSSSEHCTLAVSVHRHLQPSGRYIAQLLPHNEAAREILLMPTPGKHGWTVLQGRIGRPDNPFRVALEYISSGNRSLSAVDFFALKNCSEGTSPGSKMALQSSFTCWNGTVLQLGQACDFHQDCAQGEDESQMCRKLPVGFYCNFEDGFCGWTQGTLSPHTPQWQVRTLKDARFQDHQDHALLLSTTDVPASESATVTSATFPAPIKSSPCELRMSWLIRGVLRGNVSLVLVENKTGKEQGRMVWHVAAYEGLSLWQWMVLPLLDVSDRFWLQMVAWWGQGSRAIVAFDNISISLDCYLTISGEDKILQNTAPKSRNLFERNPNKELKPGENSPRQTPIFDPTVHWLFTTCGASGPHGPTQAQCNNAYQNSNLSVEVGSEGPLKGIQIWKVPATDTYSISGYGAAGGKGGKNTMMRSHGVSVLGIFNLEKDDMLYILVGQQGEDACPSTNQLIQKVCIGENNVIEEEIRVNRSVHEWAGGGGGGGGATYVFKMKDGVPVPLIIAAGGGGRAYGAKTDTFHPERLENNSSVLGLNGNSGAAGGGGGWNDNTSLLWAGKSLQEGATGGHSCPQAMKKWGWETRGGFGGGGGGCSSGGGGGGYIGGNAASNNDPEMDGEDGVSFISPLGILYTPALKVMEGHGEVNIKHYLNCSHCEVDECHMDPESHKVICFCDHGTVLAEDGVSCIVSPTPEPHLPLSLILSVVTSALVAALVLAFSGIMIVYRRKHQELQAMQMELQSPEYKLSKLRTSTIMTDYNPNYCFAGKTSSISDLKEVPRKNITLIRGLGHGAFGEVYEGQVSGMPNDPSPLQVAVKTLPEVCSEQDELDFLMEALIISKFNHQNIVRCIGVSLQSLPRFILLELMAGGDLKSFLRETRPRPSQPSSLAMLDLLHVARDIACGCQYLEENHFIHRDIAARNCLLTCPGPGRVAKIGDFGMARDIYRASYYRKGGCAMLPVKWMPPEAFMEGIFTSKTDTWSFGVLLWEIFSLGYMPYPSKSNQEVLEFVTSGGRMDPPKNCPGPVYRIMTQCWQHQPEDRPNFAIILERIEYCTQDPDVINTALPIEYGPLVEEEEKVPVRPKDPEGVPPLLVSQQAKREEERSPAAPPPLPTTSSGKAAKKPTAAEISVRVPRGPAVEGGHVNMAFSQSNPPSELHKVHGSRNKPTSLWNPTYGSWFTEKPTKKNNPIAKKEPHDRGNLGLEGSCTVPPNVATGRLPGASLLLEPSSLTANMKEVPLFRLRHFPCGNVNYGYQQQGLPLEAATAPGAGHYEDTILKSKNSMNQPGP

## COc1cc(N2CCC(N(C)C)CC2)ccc1Nc1ncc(Cl)c(Nc2ccccc2C(=O)C(N)=O)n1
  IC50: 27.9 nM
